Common to all, as to assay: CellTiter-Glo assay, drug administered alone
Type in all cases: cell-based
In general terms: In ATP-based viability assays light output follows the ATP content of the culture.

Test [1] deals with THP-1 leukemia cell line. Particulars: Homo sapiens.
The test system of test [2] is THP-1 leukemia cell line. Particulars: Homo sapiens, THP-1, 72 h. The procedure:
(§1) The first and second tests were performed in triplicate on the above cell lines while reducing the concentration of venetoclax by half each time from 100 μM, and the third test was performed in triplicate on the BDCM cell line while reducing the concentration of venetoclax by half each time from 100 μM, and performed in triplicate on HL-60, MolM13, MolM14, and MV4-11 cell lines while reducing the concentration of venetoclax by half each time from 2.5 μM. The fourth test was performed in triplicate on HL-60, MolM13, MolM14, and MV4-11 cell lines while reducing the concentration by half each time from 2.5 μM.
(§2) Specifically, in the first and second tests, a 10-fold diluted solution was prepared by dissolving 50 μL of 10 mM venetoclax in 450 μL of solvent. 250 μL of the solution was serially diluted ½, an 8E-tube was filled with 250 μL of each dilution, and 80 μL of each cell line was dispensed into each well of a 96-well plate. Thereafter, 10 μL of each cell line was dispensed using JANUS and incubated for 72 hours under CO2. Celltiter-Glo assay was performed and then IC50 was calculated.
(§3) The first and second tests were performed in triplicate on the above cell lines while reducing the concentration of 5-azacytidine by half each time from 100 μM. Specifically, in the first and second tests, a 10-fold diluted solution was prepared by dissolving 15 μL of 20 mM 5-azacytidine in 285 μL of solvent. 250 μL of the solution was serially diluted ½, an 8E-tube was filled with 250 μL of each dilution, and 80 μL of each cell line (3,000 cells) was dispensed into each well of a 96-well plate. Thereafter, 10 μL of each cell line was dispensed using JANUS and incubated for 72 hours under CO2. Celltiter-Glo assay was performed and then IC50 was calculated.
as §3, with “cytarabine” for “5-azacytidine”, “50,000” for “100”, “10” for “15”, “50” for “20”, “490” for “285”

Test [3] deals with U937 leukemia cell line. Particulars: Homo sapiens, U-937, 72 h. The procedure: as §1, §2, §3
as §3, with “cytarabine” for “5-azacytidine”, “50,000” for “100”, “10” for “15”, “50” for “20”, “490” for “285”

For test [4], the system named is BDCM leukemia cell line. Particulars: 72 h. The procedure:
as §1, §2
(§4) In the third test, for the BCDM cell line, a 10-fold diluted solution was prepared by dissolving 15 μL of 10 mM venetoclax in 135 μL of solvent. 100 μL of the solution was serially diluted ½, an 8E-tube was filled with 100 μL of each dilution, and the cell line was dispensed into a 96-well plate. Thereafter, 25 μL of the cell line was dispensed using JANUS and incubated for 72 hours under CO2. Celltiter-Glo assay was performed and then IC50 was calculated. Meanwhile, for the HL-60, MolM13, MolM14, and MV4-11 cell lines, a 10-fold diluted solution was prepared by dissolving […] of solvent. 200 μL of the solution was serially diluted ½, an 8E-tube was filled with 200 μL of each dilution, and each of the cell lines was dispensed into a 96-well plate. Thereafter, 60 μL of each cell line was dispensed using JANUS and incubated for 72 hours under CO2. Celltiter-Glo assay was performed and then IC50 was calculated.
as §3
as §3, with “cytarabine” for “5-azacytidine”, “50,000” for “100”, “10” for “15”, “50” for “20”, “490” for “285”

The test system of test [5] is HL-60 leukemia cell line. As to conditions: Homo sapiens.
The subject of test [6] is BDCM leukemia cell line.
Test [7] has as its system MolM14 leukemia cell line. As to conditions: Homo sapiens. How it is done:
as §1, §2, §4
(§5) The fourth test was performed on HL-60, MolM13, MolM14, and MV4-11 cell lines in the same manner as the third test.
as §3
as §3, with “cytarabine” for “5-azacytidine”, “50,000” for “100”, “10” for “15”, “50” for “20”, “490” for “285”

The test system of test [8] is HL-60 leukemia cell line. As to conditions: Homo sapiens, HL-60, 72 h, 72 hours. How it is done:
as §1, §2, §4, §5, §3
as §3, with “cytarabine” for “5-azacytidine”, “50,000” for “100”, “10” for “15”, “50” for “20”, “490” for “285”

In test [9] the test system is MV4-11 leukemia cell line. As to conditions: Homo sapiens. The procedure: as §1, §2, §4, §5, §3
as §3, with “cytarabine” for “5-azacytidine”, “50,000” for “100”, “10” for “15”, “50” for “20”, “490” for “285”

Test [10] concerns MolM13 leukemia cell line. Particulars: Homo sapiens. The procedure:
as §1, §2, §4, §5, §3
as §3, with “cytarabine” for “5-azacytidine”, “50,000” for “100”, “10” for “15”, “50” for “20”, “490” for “285”

Test [11] relates to U937 leukemia cell line. Particulars: Homo sapiens.
Where [12] appears, read: 5-azacytidine alone, read-out: IC50 First test.
The mark [13] stands for this setting: 5-azacytidine alone, read-out: IC50 Second test.
The mark [14] stands for this setting: azacitidine administered alone, Table 10, read-out: IC50 Azacitidine.
[15] abbreviates: cytarabine alone, read-out: IC50 First test.
Setting [16] is: cytarabine alone, read-out: IC50 Second test.
Where [17] appears, read: cytarabine administered alone, Table 13, read-out: IC50 Cytarabine.

Like-named read-outs stand apart in the source and are kept apart here.

A word on the IC50: it is the concentration at which inhibition is half-maximal.

As for `Nc1ncn([C@@H]2O[C@H](CO)[C@@H](O)[C@H]2O)c(=O)n1` [5-azacytidine], the IC50 turned out to be 3380 nM in test [1] (THP-1, azacitidine administered alone, Table 10, read-out: IC50 Azacitidine); 6080 nM in test [2] (setting [12]); 6380 nM in test [2] (setting [13]); 1910 nM in test [3] (setting [12]); 2540 nM in test [3] (setting [13]); 14800 nM in test [4] (setting [12]). Besides, the concentration for half-maximal inhibition (IC50) was found to be 23600 nM in test [4] (setting [13]); 9660 nM in test [5] (HL-60, azacitidine administered alone, Table 10, read-out: IC50 Azacitidine); 98200 nM in test [6] (setting [14]); 3880 nM in [7] (MOLM-14, 72 h, 5-azacytidine alone, MolM14, 72 hours, read-out: IC50 First test); 2820 nM in test [7] (MOLM-14, 72 h, 5-azacytidine alone, MolM14, 72 hours, read-out: IC50 Second test); 1590 nM in test [7] (MOLM-14, azacitidine administered alone, MolM 14, Table 10, read-out: IC50 Azacitidine). The IC50 in test [8] (setting [12]) came to 14700 nM; in [8] (setting [13]), 13200 nM; in [9] (5-azacytidine alone, 72 hours, read-out: IC50 First test) it was 3050 nM; in test [9] (5-azacytidine alone, 72 hours, read-out: IC50 Second test) it was 2450 nM; in test [9] (setting [14]), 2050 nM; in test [10] (MOLM-13, 5-azacytidine alone, MolM13, 72 hours, read-out: IC50 First test), 1710 nM. In addition, the 50% inhibitory concentration (IC50) in test [10] (MOLM-13, 5-azacytidine alone, MolM13, 72 hours, read-out: IC50 Second test) worked out at 1410 nM; in test [10] (azacitidine administered alone, MolM 13, Table 10, read-out: IC50 Azacitidine), 1380 nM; in test [11] (U-937, azacitidine administered alone, Table 10, read-out: IC50 Azacitidine), 3060 nM.

For `Nc1ccn([C@@H]2O[C@H](CO)[C@@H](O)[C@@H]2O)c(=O)n1` [Cytarabine], the IC50 in [1] (THP-1, cytarabine administered alone, Table 13, read-out: IC50 Cytarabine) was 10.6 nM; in [2] (setting [15]), 11.2 nM; in test [2] (setting [16]) it was 15.3 nM; in [3] (setting [15]), 18.3 nM; in test [3] (setting [16]), 18.4 nM; in test [4] (setting [15]), 2830 nM. The IC50 in test [4] (setting [16]) is 4480 nM; in test [5] (HL-60, cytarabine administered alone, Table 13, read-out: IC50 Cytarabine) it was 170 nM; in test [6] (setting [17]) it was 2340 nM; in [7] (MOLM-14, 72 h, cytarabine alone, MolM14, 72 hours, read-out: IC50 First test), 99 nM; in test [7] (MOLM-14, 72 h, cytarabine alone, MolM14, 72 hours, read-out: IC50 Second test), 93.3 nM; in [7] (MOLM-14, cytarabine administered alone, MolM 14, Table 13, read-out: IC50 Cytarabine), 84.7 nM. In addition, the IC50 in test [8] (setting [15]) is 221 nM; in test [8] (setting [16]), 163 nM; in test [9] (setting [17]), 81 nM; in test [9] (cytarabine alone, 72 hours, read-out: IC50 First test), 100 nM; in [9] (cytarabine alone, 72 hours, read-out: IC50 Second test), 108 nM; in test [10] (MOLM-13, cytarabine alone, MolM13, 72 hours, read-out: IC50 First test) it was 39 nM. The half-maximal inhibitory concentration (IC50) in test [10] (MOLM-13, cytarabine alone, MolM13, 72 hours, read-out: IC50 Second test) is 41.8 nM; in test [10] (cytarabine administered alone, MolM 13, Table 13, read-out: IC50 Cytarabine), 29.6 nM; in [11] (U-937, cytarabine administered alone, Table 13, read-out: IC50 Cytarabine), 9.25 nM.

The values are drawn from patent publication US20250312327A1, “COMPOSITION FOR COMBINATION THERAPY, COMPRISING 2,3,5-SUBSTITUTED THIOPHENE COMPOUND” (PHAROS IBIO CO., LTD, priority 2021, published 2025).
